ChEMBL document CHEMBL5032530, “Discovery of Benzocyclic Sulfone Derivatives as Potent CXCR2 Antagonists for Cancer Immunotherapy” (J Med Chem, 2021)
Activity calls are given as the source filed them. No cut-off for these calls is given here.

Key:
[1] = biological target: C-X-C chemokine receptor type 5 (Homo sapiens) (UniProt P32302); assay: Agonist activity against CXCR5 (unknown origin) assessed as induction of beta-arrestin 2 recruitment at 10 microM by beta arrestin assay relative to control; format: functional
[2] = biological target: C-X-C chemokine receptor type 2 (Homo sapiens) (UniProt P25025); assay: Antagonist activity against CXCR2 (unknown origin) assessed as inhibition of beta-arrestin 2 recruitment at 10 microM by beta arrestin assay relative to control; format: functional; parameters: scale not given: the % may be the effect or the level left; details: filed as antagonist
[3] = biological target: C-C chemokine receptor type 7 (Homo sapiens) (UniProt P32248); assay: Agonist activity against CCR7 (unknown origin) assessed as induction of beta-arrestin 2 recruitment at 10 microM by beta arrestin assay relative to control; format: functional
[4] = biological target: C-C chemokine receptor type 10 (Homo sapiens) (UniProt P46092); assay: Agonist activity against CCR10 (unknown origin) assessed as induction of beta-arrestin 2 recruitment at 10 microM by beta arrestin assay relative to control; format: functional
[5] = biological target: C-X-C chemokine receptor type 4 (Homo sapiens) (UniProt P61073); assay: Antagonist activity against CXCR4 (unknown origin) assessed as inhibition of beta-arrestin 2 recruitment at 10 microM by beta arrestin assay relative to control; format: functional; parameters: scale not given: the % may be the effect or the level left
[6] = biological target: CX3C chemokine receptor 1 (Homo sapiens) (UniProt P49238); assay: Agonist activity against CX3CR1 (unknown origin) assessed as induction of beta-arrestin 2 recruitment at 10 microM by beta arrestin assay relative to control; format: functional
[7] = biological target: C-C chemokine receptor type 8 (Homo sapiens) (UniProt P51685); assay: Agonist activity against CCR8 (unknown origin) assessed as induction of beta-arrestin 2 recruitment at 10 microM by beta arrestin assay relative to control; format: functional
Panc02 [8] = assay: Antitumour activity against mouse Panc02 cells xenografted in mouse assessed as change in Gr1 expressing immune cells infiltration into tumor tissue at 30 mg/kg, po bid measured after 15 days by flow cytometry analysis (reference value: 27.4%); format: functional; details: time 15 day
Panc02 [9] = assay: Antitumour activity against mouse Panc02 cells xenografted in mouse assessed as change in CD11b expressing immune cells infiltration into tumor tissue using LY6G antibody at 10 mg/kg, po bid measured after 15 days by flow cytometry analysis (reference value: 29.7%); format: functional; details: time 15 day
[10] = biological target: C-C chemokine receptor type 2 (Homo sapiens) (UniProt P41597); assay: Agonist activity against CCR2 (unknown origin) assessed as induction of beta-arrestin 2 recruitment at 10 microM by beta arrestin assay relative to control; format: functional
[11] = AUC (0 to t) in ICR mouse at 3 mg/kg, iv measured upto 48 hrs; format: ADME, organism-based; parameters: route intravenous, dose 3 mg/kg, time <=48; details: in vivo
[12] = biological target: Chemerin-like receptor 1 (Homo sapiens) (UniProt Q99788); assay: Antagonist activity against CMKLR1 (unknown origin) assessed as inhibition of beta-arrestin 2 recruitment at 10 microM by beta arrestin assay relative to control; format: functional; parameters: scale not given: the % may be the effect or the level left
[13] = AUC (0 to infinity) in ICR mouse at 3 mg/kg, iv measured upto 48 hrs; format: ADME, organism-based; parameters: route intravenous, dose 3 mg/kg, time <=48; details: in vivo
[14] = biological target: C-C chemokine receptor type 9 (Homo sapiens) (UniProt P51686); assay: Antagonist activity against CCR9 (unknown origin) assessed as inhibition of beta-arrestin 2 recruitment at 10 microM by beta arrestin assay relative to control; format: functional; parameters: scale not given: the % may be the effect or the level left
[15] = biological target: Chemerin-like receptor 1 (Homo sapiens) (UniProt Q99788); assay: Agonist activity against CMKLR1 (unknown origin) assessed as induction of beta-arrestin 2 recruitment at 10 microM by beta arrestin assay relative to control; format: functional
[16] = Oral bioavailability in ICR mouse at 30 mg/kg measured upto 48 hrs; format: ADME, organism-based; details: in vivo
[17] = biological target: C-X-C chemokine receptor type 2 (Homo sapiens) (UniProt P25025); assay: Agonist activity against CXCR2 (unknown origin) assessed as induction of beta-arrestin 2 recruitment at 10 microM by beta arrestin assay relative to control; format: functional
[18] = Tmax in ICR mouse at 30 mg/kg, po measured upto 48 hrs; format: ADME, organism-based; details: in vivo
[19] = biological target: C-C chemokine receptor type 5 (Homo sapiens) (UniProt P51681); assay: Agonist activity against CCR5 (unknown origin) assessed as induction of beta-arrestin 2 recruitment at 10 microM by beta arrestin assay relative to control; format: functional
[20] = Half life in ICR mouse at 3 mg/kg, iv measured upto 48 hrs; format: ADME, organism-based; details: in vivo
Panc02 [21] = assay: Antitumour activity against mouse Panc02 cells xenografted in mouse assessed as change in CD45 expressing immune cells infiltration into tumor tissue at 10 mg/kg, po bid measured after 15 days by flow cytometry analysis (reference value: 2.3%); format: functional; details: time 15 day
[22] = Cmax in ICR mouse at 30 mg/kg, po measured upto 48 hrs; format: ADME, organism-based; parameters: route oral, dose 30 mg/kg, time <=48; details: in vivo
Panc02 [23] = assay: Antitumour activity against mouse Panc02 cells xenografted in mouse assessed as reduction in infiltration of neutrophils into tumor tissue at 3 mg/kg, po bid measured after 15 days by flow cytometry analysis; format: functional, organism-based; details: time 15.0 day
[24] = biological target: C-C chemokine receptor type 3 (Homo sapiens) (UniProt P51677); assay: Antagonist activity against CCR3 (unknown origin) assessed as inhibition of beta-arrestin 2 recruitment at 10 microM by beta arrestin assay relative to control; format: functional; parameters: scale not given: the % may be the effect or the level left
Neutrophil = assay: In vivo antagonist activity at CXCR2 in carrageenan-induced C57BL/6 mouse air pouch inflammation model assessed as reduction in neutrophil infiltration into air pouch at 30 mg/kg, po bid administered after 3 days of carrageenan treatment for 3 days; format: functional, organism-based; details: time 3.0 day
[25] = biological target: C-C chemokine receptor type 4 (Homo sapiens) (UniProt P51679); assay: Antagonist activity against CCR4 (unknown origin) assessed as inhibition of beta-arrestin 2 recruitment at 10 microM by beta arrestin assay relative to control; format: functional; parameters: scale not given: the % may be the effect or the level left
[26] = biological target: C-X-C chemokine receptor type 4 (Homo sapiens) (UniProt P61073); assay: Agonist activity against CXCR4 (unknown origin) assessed as induction of beta-arrestin 2 recruitment at 10 microM by beta arrestin assay relative to control; format: functional
[27] = biological target: C-X-C chemokine receptor type 1 (Homo sapiens) (UniProt P25024); assay: Antagonist activity against CXCR1 (unknown origin) assessed as inhibition of beta-arrestin 2 recruitment at 10 microM by beta arrestin assay relative to control; format: functional; parameters: scale not given: the % may be the effect or the level left
[28] = biological target: C-C chemokine receptor type 3 (Homo sapiens) (UniProt P51677); assay: Agonist activity against CCR3 (unknown origin) assessed as induction of beta-arrestin 2 recruitment at 10 microM by beta arrestin assay relative to control; format: functional
[29] = biological target: C-X-C chemokine receptor type 6 (Homo sapiens) (UniProt O00574); assay: Agonist activity against CXCR6 (unknown origin) assessed as induction of beta-arrestin 2 recruitment at 10 microM by beta arrestin assay relative to control; format: functional
Panc02 [30] = assay: Antitumour activity against mouse Panc02 cells xenografted in mouse assessed as change in CD11b expressing immune cells infiltration into tumor tissue using LY6G antibody at 30 mg/kg, po bid measured after 15 days by flow cytometry analysis (reference value: 29.7%); format: functional; details: time 15 day
Panc02 [31] = assay: Cytotoxicity against mouse Panc02 cells assessed as reduction in cell viability measured after 72 hrs by CCK8 assay; format: cell-based; details: panc02, 72 h
[32] = biological target: C-X-C chemokine receptor type 3 (Homo sapiens) (UniProt P49682); assay: Agonist activity against CXCR3 (unknown origin) assessed as induction of beta-arrestin 2 recruitment at 10 microM by beta arrestin assay relative to control; format: functional
[33] = biological target: C-C chemokine receptor type 2 (Homo sapiens) (UniProt P41597); assay: Antagonist activity against CCR2 (unknown origin) assessed as inhibition of beta-arrestin 2 recruitment at 10 microM by beta arrestin assay relative to control; format: functional; parameters: scale not given: the % may be the effect or the level left

C-C chemokine receptor type 2 (Homo sapiens), sequence (P41597 whole entry, looked up): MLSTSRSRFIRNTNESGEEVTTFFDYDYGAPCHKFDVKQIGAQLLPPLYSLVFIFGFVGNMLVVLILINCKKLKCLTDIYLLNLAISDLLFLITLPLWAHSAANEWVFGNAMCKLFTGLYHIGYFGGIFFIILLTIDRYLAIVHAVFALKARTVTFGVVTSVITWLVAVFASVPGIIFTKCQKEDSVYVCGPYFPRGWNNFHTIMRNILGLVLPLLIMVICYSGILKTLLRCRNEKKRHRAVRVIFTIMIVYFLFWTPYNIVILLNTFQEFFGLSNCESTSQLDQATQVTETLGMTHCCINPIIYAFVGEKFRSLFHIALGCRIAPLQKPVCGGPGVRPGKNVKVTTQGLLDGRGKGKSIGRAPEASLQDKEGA
C-X-C chemokine receptor type 2 (Homo sapiens), sequence (P25025 whole entry): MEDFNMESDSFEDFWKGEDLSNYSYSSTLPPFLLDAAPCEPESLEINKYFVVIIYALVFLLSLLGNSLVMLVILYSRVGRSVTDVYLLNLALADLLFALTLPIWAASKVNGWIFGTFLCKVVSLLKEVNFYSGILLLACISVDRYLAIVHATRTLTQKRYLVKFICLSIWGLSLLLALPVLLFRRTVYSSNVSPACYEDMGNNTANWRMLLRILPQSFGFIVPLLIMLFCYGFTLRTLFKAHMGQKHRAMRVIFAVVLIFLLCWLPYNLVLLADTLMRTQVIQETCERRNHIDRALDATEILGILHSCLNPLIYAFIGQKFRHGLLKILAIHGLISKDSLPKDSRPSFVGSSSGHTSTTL
C-X-C chemokine receptor type 4 (Homo sapiens), sequence (P61073 whole entry): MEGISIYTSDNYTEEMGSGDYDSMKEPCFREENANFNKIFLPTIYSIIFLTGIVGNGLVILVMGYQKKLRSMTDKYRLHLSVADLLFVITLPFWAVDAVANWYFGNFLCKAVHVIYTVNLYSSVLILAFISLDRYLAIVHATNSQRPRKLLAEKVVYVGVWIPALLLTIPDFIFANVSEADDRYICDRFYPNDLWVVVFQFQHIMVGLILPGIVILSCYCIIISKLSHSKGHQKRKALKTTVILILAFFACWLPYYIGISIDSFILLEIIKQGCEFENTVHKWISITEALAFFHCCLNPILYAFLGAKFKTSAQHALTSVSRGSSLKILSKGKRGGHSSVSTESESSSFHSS
C-C chemokine receptor type 3 (Homo sapiens), sequence (P51677 whole entry): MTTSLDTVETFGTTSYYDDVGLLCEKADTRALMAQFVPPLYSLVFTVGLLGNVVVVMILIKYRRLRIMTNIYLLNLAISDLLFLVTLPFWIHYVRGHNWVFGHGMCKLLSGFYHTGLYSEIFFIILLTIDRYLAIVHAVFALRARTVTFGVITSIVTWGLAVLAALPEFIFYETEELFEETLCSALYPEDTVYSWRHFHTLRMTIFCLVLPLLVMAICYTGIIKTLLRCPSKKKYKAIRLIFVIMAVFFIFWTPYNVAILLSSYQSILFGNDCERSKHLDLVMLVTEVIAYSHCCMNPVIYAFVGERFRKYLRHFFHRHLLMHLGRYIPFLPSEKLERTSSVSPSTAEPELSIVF
Chemerin-like receptor 1 (Homo sapiens), sequence (Q99788 whole entry): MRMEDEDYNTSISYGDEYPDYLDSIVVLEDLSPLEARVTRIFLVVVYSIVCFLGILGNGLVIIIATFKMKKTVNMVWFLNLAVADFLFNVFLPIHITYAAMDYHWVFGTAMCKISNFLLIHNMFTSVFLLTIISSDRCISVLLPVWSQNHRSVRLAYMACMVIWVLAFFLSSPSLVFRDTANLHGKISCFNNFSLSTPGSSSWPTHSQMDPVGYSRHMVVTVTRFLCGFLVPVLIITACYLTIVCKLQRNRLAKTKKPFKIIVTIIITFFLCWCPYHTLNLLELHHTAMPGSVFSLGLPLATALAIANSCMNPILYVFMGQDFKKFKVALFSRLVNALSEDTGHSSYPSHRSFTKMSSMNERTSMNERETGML
C-X-C chemokine receptor type 6 (Homo sapiens), sequence (O00574 whole entry, looked up): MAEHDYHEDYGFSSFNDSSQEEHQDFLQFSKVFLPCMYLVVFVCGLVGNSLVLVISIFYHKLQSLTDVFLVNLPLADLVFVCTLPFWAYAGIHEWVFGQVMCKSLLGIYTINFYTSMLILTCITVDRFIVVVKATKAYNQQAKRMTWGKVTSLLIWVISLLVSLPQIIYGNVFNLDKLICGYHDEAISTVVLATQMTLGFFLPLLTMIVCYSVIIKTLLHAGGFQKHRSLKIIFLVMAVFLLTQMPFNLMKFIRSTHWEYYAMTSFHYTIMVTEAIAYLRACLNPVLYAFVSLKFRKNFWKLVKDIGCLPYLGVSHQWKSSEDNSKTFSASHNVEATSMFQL
CX3C chemokine receptor 1 (Homo sapiens), sequence (P49238 whole entry): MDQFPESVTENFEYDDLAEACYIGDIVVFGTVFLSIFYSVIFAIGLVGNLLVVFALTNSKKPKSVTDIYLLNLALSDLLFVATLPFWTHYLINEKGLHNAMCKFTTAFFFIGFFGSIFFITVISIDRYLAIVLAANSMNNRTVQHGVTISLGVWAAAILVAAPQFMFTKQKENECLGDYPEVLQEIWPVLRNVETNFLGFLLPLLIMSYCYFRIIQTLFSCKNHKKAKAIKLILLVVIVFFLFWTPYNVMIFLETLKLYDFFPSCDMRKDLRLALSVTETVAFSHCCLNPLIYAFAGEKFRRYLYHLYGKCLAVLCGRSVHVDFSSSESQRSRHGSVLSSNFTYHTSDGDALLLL
C-C chemokine receptor type 7 (Homo sapiens), sequence (P32248 whole entry): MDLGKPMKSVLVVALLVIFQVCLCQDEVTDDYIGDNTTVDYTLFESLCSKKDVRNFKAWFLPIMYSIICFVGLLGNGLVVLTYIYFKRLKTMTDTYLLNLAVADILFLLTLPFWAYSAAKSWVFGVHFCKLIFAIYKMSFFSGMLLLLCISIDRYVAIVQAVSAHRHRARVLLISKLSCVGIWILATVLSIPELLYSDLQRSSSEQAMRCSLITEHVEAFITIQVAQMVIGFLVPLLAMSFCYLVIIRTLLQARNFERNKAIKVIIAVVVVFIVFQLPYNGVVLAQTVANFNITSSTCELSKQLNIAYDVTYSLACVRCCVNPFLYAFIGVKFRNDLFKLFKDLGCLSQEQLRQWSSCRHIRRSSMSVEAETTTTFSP
C-X-C chemokine receptor type 5 (Homo sapiens), sequence (P32302 whole entry): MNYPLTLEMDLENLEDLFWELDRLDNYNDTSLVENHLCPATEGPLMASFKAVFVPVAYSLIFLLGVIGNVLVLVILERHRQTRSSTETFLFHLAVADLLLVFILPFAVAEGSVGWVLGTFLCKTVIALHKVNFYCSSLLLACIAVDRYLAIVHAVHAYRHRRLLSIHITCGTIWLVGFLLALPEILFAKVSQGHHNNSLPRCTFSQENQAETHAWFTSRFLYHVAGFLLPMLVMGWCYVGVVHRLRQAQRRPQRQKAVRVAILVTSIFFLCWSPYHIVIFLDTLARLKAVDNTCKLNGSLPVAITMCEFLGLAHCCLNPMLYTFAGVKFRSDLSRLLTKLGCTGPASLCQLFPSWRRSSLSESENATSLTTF
C-C chemokine receptor type 8 (Homo sapiens), sequence (P51685 whole entry): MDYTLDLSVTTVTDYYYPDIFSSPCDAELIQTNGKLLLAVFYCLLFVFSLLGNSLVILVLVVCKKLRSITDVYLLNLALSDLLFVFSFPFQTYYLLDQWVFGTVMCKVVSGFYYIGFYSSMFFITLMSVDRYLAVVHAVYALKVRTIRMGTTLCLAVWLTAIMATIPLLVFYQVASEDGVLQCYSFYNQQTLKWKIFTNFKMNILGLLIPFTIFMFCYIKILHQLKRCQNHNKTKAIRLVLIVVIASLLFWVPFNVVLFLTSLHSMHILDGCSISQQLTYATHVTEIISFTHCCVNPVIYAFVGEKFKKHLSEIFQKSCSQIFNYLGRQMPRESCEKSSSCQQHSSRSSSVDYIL
C-X-C chemokine receptor type 1 (Homo sapiens), sequence (P25024 whole entry): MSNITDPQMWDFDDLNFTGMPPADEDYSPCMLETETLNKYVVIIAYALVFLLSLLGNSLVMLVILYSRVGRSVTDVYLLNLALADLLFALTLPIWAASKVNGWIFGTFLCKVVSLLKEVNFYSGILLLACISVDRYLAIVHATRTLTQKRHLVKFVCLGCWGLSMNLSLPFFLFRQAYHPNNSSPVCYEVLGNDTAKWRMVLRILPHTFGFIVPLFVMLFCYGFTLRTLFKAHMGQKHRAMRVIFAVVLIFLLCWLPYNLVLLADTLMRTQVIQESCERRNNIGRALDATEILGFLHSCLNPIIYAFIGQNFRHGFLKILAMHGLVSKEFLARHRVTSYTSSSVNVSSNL
C-X-C chemokine receptor type 3 (Homo sapiens), sequence (P49682 whole entry): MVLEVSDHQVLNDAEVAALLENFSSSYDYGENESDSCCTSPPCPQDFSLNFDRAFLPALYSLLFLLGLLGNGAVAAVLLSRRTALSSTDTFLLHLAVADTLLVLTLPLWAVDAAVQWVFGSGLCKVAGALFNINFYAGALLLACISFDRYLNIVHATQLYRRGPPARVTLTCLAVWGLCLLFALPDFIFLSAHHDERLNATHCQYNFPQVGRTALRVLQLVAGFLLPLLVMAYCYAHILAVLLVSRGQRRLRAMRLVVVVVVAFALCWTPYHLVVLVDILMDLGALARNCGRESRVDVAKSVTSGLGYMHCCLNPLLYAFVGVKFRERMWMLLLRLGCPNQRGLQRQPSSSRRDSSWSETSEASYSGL
C-C chemokine receptor type 4 (Homo sapiens), sequence (P51679 whole entry): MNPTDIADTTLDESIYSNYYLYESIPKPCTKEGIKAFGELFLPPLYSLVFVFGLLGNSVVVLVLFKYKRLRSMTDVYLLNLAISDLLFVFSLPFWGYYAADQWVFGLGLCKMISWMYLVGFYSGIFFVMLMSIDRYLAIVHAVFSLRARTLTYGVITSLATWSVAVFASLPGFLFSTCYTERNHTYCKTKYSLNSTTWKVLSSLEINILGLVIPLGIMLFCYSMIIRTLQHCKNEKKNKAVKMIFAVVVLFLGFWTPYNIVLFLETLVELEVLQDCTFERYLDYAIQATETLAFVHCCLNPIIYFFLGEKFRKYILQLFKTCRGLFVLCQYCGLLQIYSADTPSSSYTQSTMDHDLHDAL

- Activity [1]: < 10%
- Activity [2]: 109%
- Activity [3]: < 10%
- Activity [4]: < 10%
- Activity [5]: 12%
- Activity [6]: < 10%
- Activity [7]: < 10%
- Activity [10]: < 10%
- AUC(0-t) at 48 h [11]: 357 ng·h/mL
- Activity [12]: < 10%
- AUC(0-inf) [13]: 365 ng·h/mL
- Activity [14]: 14%
- Activity [15]: < 10%
- bioavailability [16]: 6.1%
- Activity [17]: < 10%
- Tmax [18]: 1.41 h
- Activity [19]: < 10%
- half-life [20]: 4.11 h
- Cmax [22]: 19 ng/mL
- Activity [24]: 13%
- Activity [25]: 10%
- Activity [26]: < 10%
- Activity [27]: 33%
- Activity [28]: < 10%
- Activity [29]: < 10%
- Activity [32]: < 10%
- Activity [33]: 17%
SMILES: Cc1c(F)cccc1NC(=O)Nc1ccc2c(c1O)S(=O)(=O)CCC2
- Activity (Panc02 [8]): 7.5%
- Activity (Panc02 [9]): 14%
- Activity (Panc02 [21]): 30.3%
- Activity (Panc02 [23]): Active
- Activity (Neutrophil): Active
- Activity (Panc02 [30]): 7.6%
- Activity (Panc02 [31]): Non-Toxic
